Patent US6403574B1, “Azetidinecarboxamide derivatives for treating CNS disorders” (Vernalis Research Limited, priority 1998, dated 2002)

What was measured:
[1] = test system: 3-MPA-induced seizures in T/O strain mice; assay: Antagonism of 3-MPA-induced seizures; format: in vivo, mouse; settings: test drug 30 mg/kg p.o. 60 min before 3-MPA i.v.
Protocol: Antagonism of 3-MPA-Induced Seizures Several animal seizure models are available for the screening and characterisation of anticonvulsant (antiepileptic) drugs. Most models employ a chemical convulsant to induce seizures and the anticonvulsant potencies of novel compounds are measured in terms of their ability to increase the dose of convulsant required to induce a seizure response (or to prolong the latency to seizure onset following a bolus dose of the convulsant). Most chemical convulsants work by blocking the neurotransmitter function of gamma-aminobutyric acid (GABA), the predominant inhibitory neurotransmitter in the mammalian brain. This can be achieved by blocking the postsynaptic action of GABA using pentylenetetrazol or bicuculline, or via a presynaptic action using a GABA synthesis inhibitor to decrease GABA release into the synapse. In this case, the inhibitor of glutamate decarboxylase (GAD), 3-mercaptopropionic acid (3-MPA), was used as the convulsant challenge agent. […] Male albino T/O strain mice (obtained from Tuck) weighing 28-40 g were used in these studies. Animals were assigned randomly to treatment groups and vehicle or test drug (at a dose of 30 mg/kg) were administered p.o. to groups of 12 animals 60 min before the administration of a bolus dose of 3-MPA intravenously. Immediately following 3-MPA administration, each mouse was placed individually into a cage for observation. The seizure response of each animal was scored quantally as present or absent (response or non-response) during the 5 min period immediately following 3-MPA administration. A seizure response was defined as the onset of the initial clonic phase of the seizure (abrupt loss of righting reflex accompanied by vocalisation). The seizure threshold (in terms of mg/kg i.v. of 3-MPA required to evoke a seizure response) was determined in each treatment group by a sequential up/down method followed by modified probit analysis of the quantal data. A range of doses of 3-MPA was prepared (12.5-200.0 mg/kg i.v.) increasing by a constant geometric factor […], which was found in pilot studies to generate suitable data for analysis by this method. In these studies, 3-MPA was obtained from Sigma. Test compounds were prepared as solutions dissolved in 45% w/v aqueous 2-hydroxypropyl-β-cyclodextrin. 3-MPA was dissolved in isotonic saline and its pH adjusted to 6 using 1M sodium hydroxide solution. Drugs were administered in a dose volume of 10 ml/kg body weight. SC=seizure threshold after treatment with test drug SV=seizure threshold in vehicle treated group

[2] = test system: elevated zero-maze model of anxiety; assay: Anxiolytic activity in the elevated zero-maze model; format: in vivo, rat; settings: dose of 30 mg/Kg, orally 1 hour prior to zero-maze testing
Description: Measurement of Anxiolytic Activity in Mice Using the Elevated Zero-maze Model
Food and water are made freely available.
The maze is cleaned with a 5% methanol/water solution and dried thoroughly between test sessions.

GABAA receptor = assay: Binding affinity to the GABAA receptor with [35S]-TBPS; settings: membranes from rat fore-brain; [35S]-TBPS 1 nM; read-out: IC50, concentration required to displace 50% of the specific [35S]-TBPS binding
Protocol: Measurement of Binding Affinity to the GABAA Receptor with [^35S]-TBPS
The ability of test compounds to bind to the GABAA receptor was measured in membranes prepared from rat fore-brain using the procedure described by Green et al (Green, A. R., Misra, A., Murray, T. K., Snape, M. F. & Cross, A. J. Neurophamacology, 1996, 35, 1243-1250).
Binding assays were performed in plastic microtitre plates. In each study total assay volume contained [^35S]-TBPS (1 nM final concentration), membrane preparation and displacing drugs where appropriate. Drug solutions were prepared at a concentration of 10 mM in an appropriate solvent (EtOH, DMSO or H2O) and then diluted with assay buffer. Non-specific binding was determined using GABA. The free ligand concentration was determined by counting aliquots of the [^35S]-TBPS solution. The concentration of test compounds required to displace 50% of the specific binding (IC50) was determined from displacement curves.

melting point [°C] | Compound | other results
110 to 111 | C=CCNC(=O)N1CC(OCc2ccc(Cl)cc2)C1 [Example 1, 3-(4-Chlorobenzyloxy)-N-(2-propenyl)azetidine-1-carboxamide] | SC = seizure threshold after treatment with test drug [1]: 35.98 mg/kg i.v. of 3-MPA; Anxiolytic activity (increase in the frequency of head dips) [2]: effective
88 to 89 | C=CCNC(=O)N1CC(OCc2ccc(Cl)c(Cl)c2)C1 [Example 2, 3-(3,4-Dichlorobenzyloxy)-N-(2-propenyl)azetidine-1-carboxamide] | IC50 (GABAA receptor): 56 µM; SC = seizure threshold after treatment with test drug [1]: 66.7 mg/kg i.v. of 3-MPA
108 | C=CCNC(=O)N1CC(OCc2cccc(C(F)(F)F)c2)C1 [Example 3, 3-(3-(Trifluoromethyl)benzyloxy)-N-(2-propenyl)azetidine-1-carboxamide] | IC50 (GABAA receptor): 87 µM; SC = seizure threshold after treatment with test drug [1]: 129.3 mg/kg i.v. of 3-MPA
120 | C=CCNC(=O)N1CC(OCc2ccc(C(F)(F)F)cc2)C1 [Example 4, 3-(4-(Trifluoromethyl)benzyloxy)-N-(2-propenyl)azetidine-1-carboxamide] | IC50 (GABAA receptor): 91 µM; SC = seizure threshold after treatment with test drug [1]: 75.7 mg/kg i.v. of 3-MPA
– | C=CCNC(=O)N1CC(OCc2ccc(F)cc2)C1 [Example 5, 3-(4-Fluorobenzyloxy)-N-(2-propenyl)azetidine-1-carboxamide] | SC = seizure threshold after treatment with test drug [1]: 42.8 mg/kg i.v. of 3-MPA
– | C=CCNC(=O)N1CC(OC(c2ccc(Cl)cc2)c2ccc(Cl)cc2)C1 [Example 6, 3-(Bis(4-chlorophenyl)methoxy)-N-(2-propenyl)azetidine-1-carboxamide] | IC50 (GABAA receptor): 64 µM
– | C[C@@H](O)CNC(=O)N1CC(OC(c2ccc(Cl)cc2)c2ccc(Cl)cc2)C1 [Example 7, (R)-3-(Bis(4-chlorophenyl)methoxy)-N-(2-hydroxypropyl)azetidine-1-carboxamide] | IC50 (GABAA receptor): 32 µM
95 to 96 | C=CCNC(=O)N1CC(OCc2ccc(C#N)cc2)C1 [Example 10] | –
160 | C=CCNC(=O)N1CC(OCc2ccc(-c3ccccc3)cc2)C1 [Example 11] | –
141 to 142 | C=CCNC(=O)N1CC(OCc2ccc3ccccc3c2)C1 [Example 12] | –
89 to 90 | CCCNC(=O)N1CC(OCc2ccc(Cl)c(Cl)c2)C1 [Example 13] | –
67 to 68 | C=CCNC(=O)N1CC(OCc2cccc(Cl)c2)C1 [Example 14] | –
59 to 60 | C=CCNC(=O)N1CC(OCc2cccc(F)c2)C1 [Example 15] | –
128 to 129 | CCCNC(=O)N1CC(OCc2ccc(C(F)(F)F)cc2)C1 [Example 16] | –
62 to 63 | CCCNC(=O)N1CC(OCc2cccc(C(F)(F)F)c2)C1 [Example 17] | –
67 to 68 | C[C@H](O)CNC(=O)N1CC(OCc2cccc(C(F)(F)F)c2)C1 [Example 18] | –
67 to 68 | C[C@@H](O)CNC(=O)N1CC(OCc2cccc(C(F)(F)F)c2)C1 [Example 19] | –
97 to 98 | C[C@@H](O)CNC(=O)N1CC(OCc2ccc(C(F)(F)F)cc2)C1 [Example 20] | –
97 to 98 | C[C@H](O)CNC(=O)N1CC(OCc2ccc(C(F)(F)F)cc2)C1 [Example 21] | –

melting point [°C] | Compound | other results
88 to 89 | C[C@@H](O)CNC(=O)N1CC(OCc2ccc(Cl)c(Cl)c2)C1 [Example 22] | –
88 to 89 | C[C@H](O)CNC(=O)N1CC(OCc2ccc(Cl)c(Cl)c2)C1 [Example 23] | –
85 to 86 | C[C@H](O)CNC(=O)N1CC(OCc2ccc(Cl)cc2)C1 [Example 24] | –
90 to 91 | C#CCNC(=O)N1CC(OCc2cccc(C(F)(F)F)c2)C1 [Example 25] | –
76 to 77 | C=CCNC(=O)N1CC(OCc2ccccc2)C1 [Example 26] | –
73 to 74 | C[C@H](O)CNC(=O)N1CC(OCc2ccc(F)cc2)C1 [Example 27] | –
63 | C=CCNC(=O)N1CC(OCc2ccccc2C(F)(F)F)C1 [Example 28] | –
75 | C=CCNC(=O)N1CC(OCc2cc(F)ccc2F)C1 [Example 29] | –
100 | C=CCNC(=O)N1CC(OCc2ccc(Cl)cc2Cl)C1 [Example 30] | –
79 | C=CCNC(=O)N1CC(OCc2cc(F)cc(F)c2)C1 [Example 31] | –
82.5 to 85 | C=CCNC(=O)N1CC(OCc2ccc(F)c(F)c2)C1 [Example 33] | –
91 to 92.5 | C=CCNC(=O)N1CC(OCc2ccc(F)cc2F)C1 [Example 34] | –
80.5 to 81.5 | C=CCNC(=O)N1CC(OCc2cc(C(F)(F)F)cc(C(F)(F)F)c2)C1 [Example 35] | –
76 to 78 | C[C@H](O)CNC(=O)N1CC(OCc2ccc(Cl)cc2)C1 [Example 36] | –
123 to 124 | C#CCNC(=O)N1CC(OCc2ccc(Cl)cc2)C1 [Example 37] | –
94 to 96 | C#CCNC(=O)N1CC(OCc2ccc(C(C)(C)C)cc2)C1 [Example 38] | –
72 to 73 | C[C@@H](O)CNC(=O)N1CC(OCc2ccc(F)cc2)C1 [Example 40] | –
79 to 80 | C=CCNC(=O)N1CC(OCc2ccc(C(C)(C)C)cc2)C1 [Example 41] | –
94 to 96 | C#CCNC(=O)N1CC(OCc2ccc(F)cc2)C1 [Example 43] | –
